Source: publication PMC3791872 (Bioscience Reports, 2013)
Read-outs that look alike come from different tables or passages of the source.

Columns and labels:
Mcm2-7 [1] = target: T1, Mcm2-7; assay: Mcm2-7 helicase (DNA unwinding) assay; assay type: biochemical, Saccharomyces cerevisiae; settings: DNA unwinding
T1 construct: made in house; host or cells: baculovirus-infected insect cells

Mcm467 [2] = target: T2, Mcm467 (Saccharomyces cerevisiae, UniProt P30665+P38132+P53091); assay: Mcm467 helicase (DNA unwinding) assay; assay type: biochemical
T2 construct: made in house; host or cells: baculovirus-infected insect cells

[3] = target: SV40 large TAg (T-antigen) (Simian virus 40, UniProt P03070); assay: biochemical; set-up: species or system SV40 (simian virus 40); settings: DNA unwinding
[4] = tested on: S. cerevisiae ∆erg6 (UPY675); assay: Yeast growth inhibition, 96-well assay, ∆erg6 strain; assay type: cell-based, Saccharomyces cerevisiae; settings: for IC50: Saccharomyces cerevisiae, ∆erg6 strain, growth over 24 h, read-out: IC50 Yeast
RPE-hTERT cells = assay: Human cell viability, MTS method; assay type: cell-based; settings: 48 h, value (95% CI)
Experimental: Ciproﬂoxacin is an inhibitor of the Mcm2-7 […]
The viability of human cells was assayed using the MTS method
[1]. Brieﬂy, 1 ×10^5 cells of the human non-tumour cell line RPE-hTERT were plated into each well of a 96-well plate and grown in DMEM: F12 containing 10 % (v/v) FBS in 5 % (v/v) CO2 at 37 ◦ C. The next day, the indicated compounds were titrated into media such that the ﬁnal concentration contained 1 % (v/v)
DMSO. As a negative control, media were also prepared that contained 1 % DMSO but lacked compound. After 48 h, the media was removed and replaced with DMEM lacking phenol red but containing Cell Titer 96 Aqueous One Solution Cell Proliferation
Assay (Promega). After 1 h, the A490 nm was measured using a BioRad iMark Microplate Reader (Hercules). Final data reﬂect the average and standard deviation (S.D.) of three replicates at each compound concentration. […]

pUC19 = assay: DNA intercalation assay (Topo I-relaxed plasmid); assay type: biochemical
Description: To examine this model, we tested our inhibitors in a standard topoisomerase assay. The rationale of this assay is that intercalating compounds will introduce supercoils into a fully relaxed plasmid. Topo I will remove these introduced supercoils, but after quenching and gel electrophoresis the intercalator will diffuse away and produce a detectable compensatory supercoiling increase.

DnaB = DnaB (Escherichia coli, UniProt P0ACB0); assay: DnaB helicase assay; assay type: biochemical; settings: 1 mM, Figure S3
Experimental: (§1) Helicase assays were performed essentially as described. Synthetic replication forks were prepared by annealing oligos 233 and 235 [IDT (Coralville), oligo 233 5′(T)40[…]; oligo 235 5′ […](T)40] and then filling in the recessed 3′-end with [α32P]dATP and unlabelled dNTPs using Klenow Fragment. Briefly, reactions ([…]) were performed in 1× helicase assay buffer [20 mM Tris/HCl (pH 7.5), 10 mM MgOAc, 20% (v/v) glycerol, 100 μM EDTA and 5 mM DTT (dithiothreitol)] and contained a final concentration of 1 nM fork substrate, 5 mM ATP, 40 mM creatine phosphate, […] creatine kinase, 33 μg/ml BSA. Reactions containing Mcm2-7 and Mcm467 were supplemented with 200 mM potassium glutamate. Reactions containing SsoMcm were incubated at 65°C, those containing T4 gp41 were incubated for 30 min at 37°C, and all other reactions were incubated at 37°C for 1 h. The products were separated by 10% (w/v) native PAGE, the resulting gels dried and the radioactivity quantified using a Fuji FLA-5100 phosphoimager. Irrespective of the protein used, all helicase assays contained equal molar helicase concentrations (100 nM, assuming in all cases that the active helicase form is hexameric). Steady-state ATP hydrolysis was assayed as published. In short, reactions were set up essentially as in the helicase assay, with minor exceptions. A non-radiolabelled DNA fork was used, helicase concentration was 100 nM (hexamer) the total ATP concentration was 500 μM and included ~0.5 μCi of [α32P]ATP, and the ATP regeneration system was omitted. Reactions were incubated for 1 h at 37°C and stopped by the addition of SDS. ATP was separated from ADP by PEI (polyethyleneimine) thin layer chromatography, and the ratio of ATP:ADP was quantified using a Fuji FLA-5100 phosphoimager. Based on our prior work, conditions were established to ensure that the results shown are within the linear range of the assay. Protein–ssDNA binding was determined with a double filter-binding assay using an ssDNA probe (oligo 826, 5′[…]) that was 5′-radiolabelled using T4 polynucleotide kinase and [γ32P]ATP [16]. For the double filter-binding assay, the helicase concentration was 150 nM (hexamer) and the ssDNA concentration was 4 nM. For all biochemical assays, helicases were preincubated with inhibitors for 20 min at 37°C unless otherwise indicated. […]
(§2) against different helicases
(§3) Representative helicase activity assays in the presence of the indicated inhibitor were tested, quantiﬁed and standardized as described in the legend to F igures 2 (A) and (B). All helicases were assayed at 100 nM
(§4) ﬁnal concentration (hexamer) with inhibitor preincubation prior to ATP […]
(§5) F igure S3 Ciproﬂoxacin poor ly inhibits hexameric helicases un- […]
(§6) All inhibitors were used at 1 mM ﬁnal concentration. […]

T4 gp41 = target: T3, T4 gp41 (Enterobacteria phage T4, UniProt P04530); assay: T4 gp41 helicase assay; assay type: biochemical; settings: 1 mM, Figure S3
T3 sequence (P04530 1-475): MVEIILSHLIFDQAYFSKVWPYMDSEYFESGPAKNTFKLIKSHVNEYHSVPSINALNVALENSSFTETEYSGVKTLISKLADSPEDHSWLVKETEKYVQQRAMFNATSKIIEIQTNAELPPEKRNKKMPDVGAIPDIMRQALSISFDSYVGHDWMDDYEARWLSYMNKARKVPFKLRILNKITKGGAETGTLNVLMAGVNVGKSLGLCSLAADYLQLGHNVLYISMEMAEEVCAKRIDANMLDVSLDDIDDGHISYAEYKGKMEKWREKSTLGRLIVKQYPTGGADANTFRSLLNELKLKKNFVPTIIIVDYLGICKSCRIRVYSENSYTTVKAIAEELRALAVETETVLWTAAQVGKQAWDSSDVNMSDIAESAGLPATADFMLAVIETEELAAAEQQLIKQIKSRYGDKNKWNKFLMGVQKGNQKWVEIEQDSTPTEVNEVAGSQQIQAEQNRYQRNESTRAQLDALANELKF
Experimental: as §1, §2, §3, §4, §5, §6

Mcm2-7 [5] = tested on: T1, Mcm2-7; assay: ssDNA double filter-binding assay, Mcm2-7; set-up: species or system Saccharomyces cerevisiae; settings: 1 mM compound, 150 nM helicase
Mcm467 [6] = target: T2, Mcm467; assay: ssDNA double filter-binding assay, Mcm467; settings: 1 mM compound, 150 nM helicase
[7] = 100 nM hexamer, inhibitor preincubation, […], read-out: IC50 T-antigen
[8] = 1 mM inhibitor added after plasmid relaxation (Figure 3C)

SV40 large TAg (T-antigen), sequence (P03070 whole entry, looked up): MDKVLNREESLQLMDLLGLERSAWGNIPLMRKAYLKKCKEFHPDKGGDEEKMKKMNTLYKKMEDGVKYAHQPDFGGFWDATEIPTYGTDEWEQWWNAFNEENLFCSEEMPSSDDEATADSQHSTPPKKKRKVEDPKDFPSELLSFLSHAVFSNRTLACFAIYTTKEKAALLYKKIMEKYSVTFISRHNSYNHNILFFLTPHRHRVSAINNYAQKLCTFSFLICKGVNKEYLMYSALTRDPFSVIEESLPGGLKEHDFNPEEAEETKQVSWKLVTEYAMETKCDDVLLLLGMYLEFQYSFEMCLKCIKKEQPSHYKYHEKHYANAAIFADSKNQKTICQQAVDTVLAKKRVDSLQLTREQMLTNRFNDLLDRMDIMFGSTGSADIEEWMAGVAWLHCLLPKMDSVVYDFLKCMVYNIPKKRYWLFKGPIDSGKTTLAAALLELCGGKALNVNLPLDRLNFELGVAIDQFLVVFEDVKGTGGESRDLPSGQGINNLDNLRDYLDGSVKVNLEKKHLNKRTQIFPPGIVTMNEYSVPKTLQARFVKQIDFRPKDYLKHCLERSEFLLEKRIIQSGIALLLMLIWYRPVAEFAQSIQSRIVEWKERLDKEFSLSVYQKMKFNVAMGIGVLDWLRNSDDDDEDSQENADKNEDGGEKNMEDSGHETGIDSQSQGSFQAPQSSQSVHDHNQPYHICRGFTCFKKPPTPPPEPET
T2 sequence (P30665 whole entry): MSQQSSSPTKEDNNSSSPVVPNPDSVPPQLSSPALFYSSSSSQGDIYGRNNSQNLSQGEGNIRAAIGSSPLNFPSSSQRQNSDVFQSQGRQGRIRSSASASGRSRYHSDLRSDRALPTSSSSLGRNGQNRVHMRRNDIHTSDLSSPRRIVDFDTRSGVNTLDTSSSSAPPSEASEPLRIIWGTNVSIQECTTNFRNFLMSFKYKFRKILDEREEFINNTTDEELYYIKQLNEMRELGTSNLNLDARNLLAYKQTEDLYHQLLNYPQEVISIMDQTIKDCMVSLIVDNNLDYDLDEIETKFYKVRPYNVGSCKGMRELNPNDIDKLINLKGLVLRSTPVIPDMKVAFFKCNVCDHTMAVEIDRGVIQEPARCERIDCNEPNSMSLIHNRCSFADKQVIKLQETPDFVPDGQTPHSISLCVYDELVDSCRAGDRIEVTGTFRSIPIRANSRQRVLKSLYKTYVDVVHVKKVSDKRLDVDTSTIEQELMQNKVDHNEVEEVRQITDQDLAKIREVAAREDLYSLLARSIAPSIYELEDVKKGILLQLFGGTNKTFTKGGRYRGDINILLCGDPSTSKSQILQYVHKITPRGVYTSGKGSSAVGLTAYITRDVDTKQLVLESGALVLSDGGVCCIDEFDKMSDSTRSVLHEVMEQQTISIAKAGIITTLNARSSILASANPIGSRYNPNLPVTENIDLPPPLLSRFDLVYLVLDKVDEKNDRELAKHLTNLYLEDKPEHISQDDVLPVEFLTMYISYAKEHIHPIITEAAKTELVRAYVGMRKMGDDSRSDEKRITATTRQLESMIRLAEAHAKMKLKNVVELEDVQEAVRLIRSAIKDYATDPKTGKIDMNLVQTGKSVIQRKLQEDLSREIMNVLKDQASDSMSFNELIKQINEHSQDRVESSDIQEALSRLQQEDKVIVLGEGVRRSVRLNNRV
T2 sequence (P53091 whole entry): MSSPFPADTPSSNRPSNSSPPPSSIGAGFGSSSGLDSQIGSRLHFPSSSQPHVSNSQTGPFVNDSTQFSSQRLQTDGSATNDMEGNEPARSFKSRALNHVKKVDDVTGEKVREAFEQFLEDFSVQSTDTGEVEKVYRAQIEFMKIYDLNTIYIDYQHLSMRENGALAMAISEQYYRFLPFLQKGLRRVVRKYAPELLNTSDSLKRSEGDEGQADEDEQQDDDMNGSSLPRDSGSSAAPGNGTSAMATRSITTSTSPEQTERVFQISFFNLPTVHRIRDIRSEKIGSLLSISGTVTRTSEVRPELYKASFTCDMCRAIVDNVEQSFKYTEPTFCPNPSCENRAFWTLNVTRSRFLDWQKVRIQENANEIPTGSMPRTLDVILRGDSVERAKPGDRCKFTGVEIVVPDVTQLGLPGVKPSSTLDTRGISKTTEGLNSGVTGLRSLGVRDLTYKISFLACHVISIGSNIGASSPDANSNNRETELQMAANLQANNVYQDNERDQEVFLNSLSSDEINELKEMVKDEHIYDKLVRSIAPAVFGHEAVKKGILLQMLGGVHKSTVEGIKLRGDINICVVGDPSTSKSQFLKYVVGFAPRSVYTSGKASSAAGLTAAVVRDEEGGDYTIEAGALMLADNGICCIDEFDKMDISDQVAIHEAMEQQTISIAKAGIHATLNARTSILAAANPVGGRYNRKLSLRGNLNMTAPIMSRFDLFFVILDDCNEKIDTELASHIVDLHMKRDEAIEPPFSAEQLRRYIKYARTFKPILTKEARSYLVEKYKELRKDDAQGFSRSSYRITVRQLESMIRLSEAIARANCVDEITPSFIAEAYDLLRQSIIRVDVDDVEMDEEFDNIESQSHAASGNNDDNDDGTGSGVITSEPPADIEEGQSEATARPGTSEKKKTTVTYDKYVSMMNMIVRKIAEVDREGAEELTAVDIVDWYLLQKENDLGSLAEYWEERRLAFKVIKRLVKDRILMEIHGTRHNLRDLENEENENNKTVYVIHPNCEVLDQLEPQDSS
T2 sequence (P38132 whole entry): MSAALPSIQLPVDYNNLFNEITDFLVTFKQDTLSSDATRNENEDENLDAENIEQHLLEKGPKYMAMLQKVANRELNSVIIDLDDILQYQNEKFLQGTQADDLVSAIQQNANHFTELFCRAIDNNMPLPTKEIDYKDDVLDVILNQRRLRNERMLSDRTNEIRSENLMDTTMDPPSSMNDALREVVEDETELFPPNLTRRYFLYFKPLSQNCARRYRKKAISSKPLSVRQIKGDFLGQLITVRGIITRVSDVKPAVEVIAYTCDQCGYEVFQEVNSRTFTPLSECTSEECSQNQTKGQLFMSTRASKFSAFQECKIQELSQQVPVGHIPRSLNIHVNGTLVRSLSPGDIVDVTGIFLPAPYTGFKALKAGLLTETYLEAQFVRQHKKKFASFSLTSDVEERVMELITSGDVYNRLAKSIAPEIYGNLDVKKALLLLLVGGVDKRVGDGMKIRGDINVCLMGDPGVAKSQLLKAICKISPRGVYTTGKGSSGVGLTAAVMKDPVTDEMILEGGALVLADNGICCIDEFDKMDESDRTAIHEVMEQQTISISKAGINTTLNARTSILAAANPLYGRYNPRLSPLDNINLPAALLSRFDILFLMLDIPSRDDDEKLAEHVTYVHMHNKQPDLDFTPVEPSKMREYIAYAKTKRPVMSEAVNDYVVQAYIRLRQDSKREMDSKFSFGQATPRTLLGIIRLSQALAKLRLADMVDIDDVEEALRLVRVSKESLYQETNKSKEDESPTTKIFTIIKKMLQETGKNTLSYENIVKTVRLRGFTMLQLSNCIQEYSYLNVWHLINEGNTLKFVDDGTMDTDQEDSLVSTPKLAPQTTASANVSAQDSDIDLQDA
DnaB, sequence (P0ACB0 whole entry, the tested form may be a part): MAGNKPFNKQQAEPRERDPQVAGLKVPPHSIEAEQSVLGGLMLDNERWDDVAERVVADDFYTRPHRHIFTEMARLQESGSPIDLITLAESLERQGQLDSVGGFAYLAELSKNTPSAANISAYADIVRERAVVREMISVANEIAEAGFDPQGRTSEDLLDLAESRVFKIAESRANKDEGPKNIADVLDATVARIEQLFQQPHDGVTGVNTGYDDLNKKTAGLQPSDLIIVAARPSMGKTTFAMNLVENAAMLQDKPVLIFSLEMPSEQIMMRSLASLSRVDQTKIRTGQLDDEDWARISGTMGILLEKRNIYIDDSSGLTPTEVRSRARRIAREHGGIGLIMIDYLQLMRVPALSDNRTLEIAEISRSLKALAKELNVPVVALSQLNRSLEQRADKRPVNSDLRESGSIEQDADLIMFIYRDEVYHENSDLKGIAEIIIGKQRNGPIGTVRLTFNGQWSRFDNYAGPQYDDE

With Cc1c(F)c(N2CCC(N)C2)nc2c1c(=O)c(C(=O)O)cn2C1CC1 (stereo not drawn) [compound 125248] the IC50 (Mcm2-7 [1]; read-out: IC50 Mcm2-7, 100 nM hexamer, inhibitor preincubation, value (95% CI)) was 72 µM, the IC50 (Mcm467 [2]; IC50 Mcm467, DNA unwinding, 100 nM hexamer, inhibitor preincubation, value (95% CI)) was 130 µM and the IC50 [3, 7] was 190 µM. It also gave an IC50 ([4]; value (95% CI)) of 460 µM, an IC50 (RPE-hTERT cells) of 14 µM and an IC50 (RPE-hTERT cells; Homo sapiens) of roughly 10 µM. The DNA intercalation (pUC19; [8]) was “extensive DNA intercalation”, the DNA intercalation (pUC19; inhibitor at 2- to 3-fold over calculated helicase IC50 (Figure 3E)) was “significant DNA intercalation” and the “inhibition of DnaB helicase” value (DnaB) was “nearly complete inhibition”. The “inhibition of T4 gp41 helicase” value (T4 gp41) was “nearly complete inhibition”.

With CCN1C(=O)C=CC1=O [NEM, N-ethylmaleimide] the “effect on ssDNA binding of Mcm2-7” value (Mcm2-7 [5]) was “inhibit” and the “effect on ssDNA binding of Mcm467” value (Mcm467 [6]) was “inhibit”.

Cc1ccc(-c2cc(-c3ccccc3)nc(N3CCNCC3)n2)cc1 [compound 388612] was tested, and the IC50 (Mcm2-7 [1]; 100 nM hexamer, inhibitor preincubation, value (95% CI), read-out: IC50 Mcm2-7) was 396 µM, the IC50 (Mcm467 [2]; DNA unwinding, 100 nM hexamer, inhibitor preincubation, value (95% CI), read-out: IC50 Mcm467) was 345 µM and the IC50 [3, 7] was 126 µM. For the same compound, the IC50 ([4]; insufficient data for 95% CI) was less than 0.01 µM and the DNA intercalation (pUC19; [8]) was “extensive DNA intercalation”.

Work on CC1COc2c(N3CCN(C)CC3)c(F)cc3c(=O)c(C(=O)O)cn1c23 (stereo not drawn) [ofloxacin, reference compound] yielded an IC50 (Mcm2-7 [1]; 100 nM complex, read-out: IC50 Mcm2-7 helicase activity) of 4170 µM, an IC50 (Mcm467 [2]; DNA unwinding, 100 nM complex, read-out: IC50 Mcm467 helicase activity) of 5290 µM and an IC50 ([3]; 100 nM complex, read-out: IC50 TAg helicase activity) greater than 20000 µM. The “growth response of ∆erg6 yeast” value ([4]; Figure 4A) was “demonstrable growth sensitivity”.
